Results reported in the kinase profiling compilation of Christmann-Franck et al. (2016).

How the values were obtained:
Experiment in all cases: KINOMEscan competition binding
Conditions in all cases: compound 10.0 µM
[1] = molecular target: PRKAA1 (human) (UniProt Q13131)
[2] = molecular target: PTK6 (human) (UniProt Q13882)
[3] = molecular target: TYRO3 (human) (UniProt Q06418)
[4] = molecular target: STK17B (human) (UniProt O94768)
[5] = molecular target: CAMK1D (human) (UniProt Q8IU85)
[6] = molecular target: MYLK2 (human) (UniProt Q9H1R3)
[7] = molecular target: NEK1 (human) (UniProt Q96PY6)
[8] = molecular target: RIOK2 (human) (UniProt Q9BVS4)
[9] = molecular target: DYRK1B (human) (UniProt Q9Y463)
[10] = molecular target: PAK2 (human) (UniProt Q13177)
[11] = molecular target: ANKK1 (human) (UniProt Q8NFD2)
[12] = molecular target: TLK2 (human) (UniProt Q86UE8)
[13] = molecular target: ALK (human) (UniProt Q9UM73)
[14] = molecular target: EPHB3 (human) (UniProt P54753)
[15] = molecular target: EPHA7 (human) (UniProt Q15375)
[16] = molecular target: MAPK11 (human) (UniProt Q15759)
[17] = molecular target: HIPK1 (human) (UniProt Q86Z02)
[18] = molecular target: PIP4K2B (human) (UniProt P78356)
[19] = molecular target: PRKCE (human) (UniProt Q02156)
[20] = molecular target: PRKX (human) (UniProt P51817)
[21] = molecular target: MAP4K5 (human) (UniProt Q9Y4K4)
[22] = molecular target: MKNK1 (human) (UniProt Q9BUB5)
[23] = molecular target: FLT3 (human) (UniProt P36888)
[24] = molecular target: RPS6KA5 KD1 (human) (UniProt O75582)
[25] = molecular target: LATS1 (human) (UniProt O95835)
[26] = molecular target: PLK1 (human) (UniProt P53350)
[27] = molecular target: CLK4 (human) (UniProt Q9HAZ1)
[28] = molecular target: AURKB (human) (UniProt Q96GD4)
[29] = molecular target: ROS1 (human) (UniProt P08922)
[30] = molecular target: STK38L (human) (UniProt Q9Y2H1)
[31] = molecular target: DCLK2 (human) (UniProt Q8N568)
[32] = molecular target: TAOK1 (human) (UniProt Q7L7X3)
[33] = molecular target: MARK2 (human) (UniProt Q7KZI7)
[34] = molecular target: RPS6KA5 KD2 (human) (UniProt O75582)
[35] = system: FLT3 (human), P36888 [ITD]
[36] = molecular target: PRKG1 (human) (UniProt Q13976)
[37] = molecular target: MAPK13 (human) (UniProt O15264)
Chain of MAPK13 (human) (O15264 whole entry, looked up): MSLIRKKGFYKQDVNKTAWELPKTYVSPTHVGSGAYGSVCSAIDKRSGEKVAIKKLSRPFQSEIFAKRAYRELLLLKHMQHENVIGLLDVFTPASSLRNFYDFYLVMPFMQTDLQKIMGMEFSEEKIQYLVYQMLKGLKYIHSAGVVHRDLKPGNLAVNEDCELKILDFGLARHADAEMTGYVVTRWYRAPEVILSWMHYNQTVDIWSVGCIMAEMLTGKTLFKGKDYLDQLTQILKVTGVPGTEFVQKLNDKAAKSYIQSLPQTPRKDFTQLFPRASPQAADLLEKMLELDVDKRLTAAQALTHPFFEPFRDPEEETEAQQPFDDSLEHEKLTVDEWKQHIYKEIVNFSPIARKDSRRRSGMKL

Chain of MAPK11 (human) (Q15759 whole entry, looked up): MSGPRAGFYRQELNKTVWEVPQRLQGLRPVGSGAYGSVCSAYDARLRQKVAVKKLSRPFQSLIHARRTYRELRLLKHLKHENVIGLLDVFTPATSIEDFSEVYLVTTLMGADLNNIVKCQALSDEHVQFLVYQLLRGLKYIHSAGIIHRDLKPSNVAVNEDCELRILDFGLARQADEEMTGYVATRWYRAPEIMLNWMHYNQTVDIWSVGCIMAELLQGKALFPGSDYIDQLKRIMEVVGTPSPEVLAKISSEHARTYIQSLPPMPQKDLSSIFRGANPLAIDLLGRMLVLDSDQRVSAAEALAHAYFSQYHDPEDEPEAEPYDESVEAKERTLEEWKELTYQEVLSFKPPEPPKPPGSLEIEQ
Chain of EPHB3 (human) (P54753 whole entry, looked up): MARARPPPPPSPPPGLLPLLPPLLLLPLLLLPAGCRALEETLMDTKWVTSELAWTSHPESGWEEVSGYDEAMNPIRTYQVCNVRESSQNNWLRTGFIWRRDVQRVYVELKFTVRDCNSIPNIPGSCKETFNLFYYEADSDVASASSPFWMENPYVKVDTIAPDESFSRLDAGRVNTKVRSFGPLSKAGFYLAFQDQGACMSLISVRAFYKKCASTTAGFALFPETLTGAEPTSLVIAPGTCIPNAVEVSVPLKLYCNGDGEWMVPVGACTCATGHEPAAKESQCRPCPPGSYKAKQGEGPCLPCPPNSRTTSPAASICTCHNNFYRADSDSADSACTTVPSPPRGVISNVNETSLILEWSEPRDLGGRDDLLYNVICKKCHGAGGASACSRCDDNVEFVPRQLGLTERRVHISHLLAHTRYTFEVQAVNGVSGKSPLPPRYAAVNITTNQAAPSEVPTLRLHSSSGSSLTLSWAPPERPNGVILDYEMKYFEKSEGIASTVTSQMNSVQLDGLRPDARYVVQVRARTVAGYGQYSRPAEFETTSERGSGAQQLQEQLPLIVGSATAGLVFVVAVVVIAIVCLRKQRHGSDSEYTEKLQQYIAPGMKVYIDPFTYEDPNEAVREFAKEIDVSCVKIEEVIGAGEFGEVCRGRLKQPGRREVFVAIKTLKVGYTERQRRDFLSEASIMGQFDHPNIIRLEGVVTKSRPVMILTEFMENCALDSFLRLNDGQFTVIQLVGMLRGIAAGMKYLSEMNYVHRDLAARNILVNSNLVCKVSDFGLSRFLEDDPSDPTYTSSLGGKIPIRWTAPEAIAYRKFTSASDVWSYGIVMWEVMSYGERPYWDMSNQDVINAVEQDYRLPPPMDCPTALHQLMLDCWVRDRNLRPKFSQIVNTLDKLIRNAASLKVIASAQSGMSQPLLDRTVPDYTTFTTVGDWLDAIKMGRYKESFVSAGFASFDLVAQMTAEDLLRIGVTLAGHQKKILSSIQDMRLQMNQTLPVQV
Chain of CLK4 (human) (Q9HAZ1 whole entry, looked up): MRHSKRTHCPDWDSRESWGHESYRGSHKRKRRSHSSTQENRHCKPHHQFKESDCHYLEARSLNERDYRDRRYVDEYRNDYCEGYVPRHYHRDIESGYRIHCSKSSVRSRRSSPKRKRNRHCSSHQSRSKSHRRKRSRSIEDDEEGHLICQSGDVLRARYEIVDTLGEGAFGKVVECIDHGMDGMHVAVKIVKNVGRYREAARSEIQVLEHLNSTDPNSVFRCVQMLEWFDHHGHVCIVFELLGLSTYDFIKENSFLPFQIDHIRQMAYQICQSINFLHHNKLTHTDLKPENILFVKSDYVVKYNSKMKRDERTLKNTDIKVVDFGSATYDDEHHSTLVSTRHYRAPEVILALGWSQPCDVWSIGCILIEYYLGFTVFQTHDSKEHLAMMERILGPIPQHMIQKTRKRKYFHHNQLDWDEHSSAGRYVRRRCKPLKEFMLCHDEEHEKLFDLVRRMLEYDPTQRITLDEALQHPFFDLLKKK
Chain of NEK1 (human) (Q96PY6 whole entry, looked up): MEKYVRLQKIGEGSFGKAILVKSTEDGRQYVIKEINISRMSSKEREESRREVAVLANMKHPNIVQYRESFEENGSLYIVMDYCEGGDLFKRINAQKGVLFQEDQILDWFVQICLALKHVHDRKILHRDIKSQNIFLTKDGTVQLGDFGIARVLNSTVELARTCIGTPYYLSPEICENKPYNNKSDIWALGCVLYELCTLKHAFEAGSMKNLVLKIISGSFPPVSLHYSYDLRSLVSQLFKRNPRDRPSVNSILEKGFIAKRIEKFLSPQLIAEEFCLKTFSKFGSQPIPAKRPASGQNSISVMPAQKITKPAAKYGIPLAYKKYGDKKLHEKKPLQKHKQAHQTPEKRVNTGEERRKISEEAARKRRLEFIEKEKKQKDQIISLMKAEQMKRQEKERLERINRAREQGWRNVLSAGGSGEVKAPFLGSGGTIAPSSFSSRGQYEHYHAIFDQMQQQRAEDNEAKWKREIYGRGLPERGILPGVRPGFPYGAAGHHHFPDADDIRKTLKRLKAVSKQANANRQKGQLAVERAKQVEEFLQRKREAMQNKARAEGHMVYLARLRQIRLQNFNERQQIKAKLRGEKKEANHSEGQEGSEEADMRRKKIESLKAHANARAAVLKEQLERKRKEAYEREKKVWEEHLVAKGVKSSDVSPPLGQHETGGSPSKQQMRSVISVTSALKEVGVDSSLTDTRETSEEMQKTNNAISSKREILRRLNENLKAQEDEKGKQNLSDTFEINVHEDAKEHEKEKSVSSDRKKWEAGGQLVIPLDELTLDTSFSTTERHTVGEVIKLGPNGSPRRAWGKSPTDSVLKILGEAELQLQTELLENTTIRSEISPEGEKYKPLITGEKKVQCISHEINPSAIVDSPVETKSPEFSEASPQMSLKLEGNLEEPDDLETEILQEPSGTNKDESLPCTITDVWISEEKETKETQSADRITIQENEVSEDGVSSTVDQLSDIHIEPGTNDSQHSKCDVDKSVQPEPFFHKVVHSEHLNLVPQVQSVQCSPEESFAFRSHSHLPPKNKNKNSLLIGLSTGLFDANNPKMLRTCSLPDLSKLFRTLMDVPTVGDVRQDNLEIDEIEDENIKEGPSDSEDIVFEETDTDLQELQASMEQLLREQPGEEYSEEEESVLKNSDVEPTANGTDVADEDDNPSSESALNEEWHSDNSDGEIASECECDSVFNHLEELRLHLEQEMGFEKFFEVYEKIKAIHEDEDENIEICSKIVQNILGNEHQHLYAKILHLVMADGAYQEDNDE
Chain of MKNK1 (human) (Q9BUB5 whole entry, looked up): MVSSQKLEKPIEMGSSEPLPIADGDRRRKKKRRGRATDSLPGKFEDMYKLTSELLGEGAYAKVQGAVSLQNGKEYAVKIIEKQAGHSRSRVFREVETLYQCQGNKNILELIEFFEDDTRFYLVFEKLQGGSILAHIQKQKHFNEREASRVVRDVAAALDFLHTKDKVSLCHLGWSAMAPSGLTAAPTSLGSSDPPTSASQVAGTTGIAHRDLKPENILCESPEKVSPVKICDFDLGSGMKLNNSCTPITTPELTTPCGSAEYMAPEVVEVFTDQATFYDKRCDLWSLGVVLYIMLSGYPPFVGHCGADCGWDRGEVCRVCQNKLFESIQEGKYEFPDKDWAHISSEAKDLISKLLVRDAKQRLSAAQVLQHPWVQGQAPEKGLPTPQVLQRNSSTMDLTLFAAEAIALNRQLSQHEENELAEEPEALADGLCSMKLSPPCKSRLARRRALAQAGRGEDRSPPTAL
Chain of PTK6 (human) (Q13882 whole entry, looked up): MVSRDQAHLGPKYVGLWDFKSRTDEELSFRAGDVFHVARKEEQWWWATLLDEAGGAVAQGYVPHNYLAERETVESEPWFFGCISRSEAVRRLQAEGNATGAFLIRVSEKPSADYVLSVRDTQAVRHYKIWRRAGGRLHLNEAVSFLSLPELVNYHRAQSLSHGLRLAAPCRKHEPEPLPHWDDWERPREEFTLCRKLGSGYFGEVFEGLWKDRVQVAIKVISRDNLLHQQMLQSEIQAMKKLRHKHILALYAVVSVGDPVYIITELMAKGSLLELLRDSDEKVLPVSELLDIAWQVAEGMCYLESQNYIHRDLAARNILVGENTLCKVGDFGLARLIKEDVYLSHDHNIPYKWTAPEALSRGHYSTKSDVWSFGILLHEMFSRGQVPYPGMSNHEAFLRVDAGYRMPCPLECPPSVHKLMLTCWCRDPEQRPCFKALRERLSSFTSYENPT
Chain of MYLK2 (human) (Q9H1R3 whole entry, looked up): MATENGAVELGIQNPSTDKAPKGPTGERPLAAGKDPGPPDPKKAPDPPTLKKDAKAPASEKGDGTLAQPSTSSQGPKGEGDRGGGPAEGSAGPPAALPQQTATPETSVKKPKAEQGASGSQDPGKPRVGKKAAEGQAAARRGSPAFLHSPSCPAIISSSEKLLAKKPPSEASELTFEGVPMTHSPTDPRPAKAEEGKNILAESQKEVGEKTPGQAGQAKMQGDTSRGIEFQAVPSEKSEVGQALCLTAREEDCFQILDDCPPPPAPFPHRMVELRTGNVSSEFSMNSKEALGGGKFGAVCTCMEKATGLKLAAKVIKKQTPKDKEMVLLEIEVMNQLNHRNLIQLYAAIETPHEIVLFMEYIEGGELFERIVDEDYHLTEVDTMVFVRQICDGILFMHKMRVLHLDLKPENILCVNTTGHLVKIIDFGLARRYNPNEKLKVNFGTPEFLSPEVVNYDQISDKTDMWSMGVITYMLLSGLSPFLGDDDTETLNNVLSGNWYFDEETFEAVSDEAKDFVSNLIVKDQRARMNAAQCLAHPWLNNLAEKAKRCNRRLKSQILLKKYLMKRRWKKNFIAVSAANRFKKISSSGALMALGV

O=C(O)c1ccc(Nc2ncc3c(n2)-c2ccc(Cl)cc2C(c2c(F)cccc2F)=NC3)cc1
kinase still bound, per cent of control [1]: 38%
kinase still bound, per cent of control [2]: 77%
kinase still bound, per cent of control [3]: 46%
kinase still bound, per cent of control [4]: 8.6%
kinase still bound, per cent of control [5]: 98%
kinase still bound, per cent of control [6]: 100%
kinase still bound, per cent of control [7]: 56%
kinase still bound, per cent of control [8]: 99%
kinase still bound, per cent of control [9]: 91%
kinase still bound, per cent of control [10]: 71%
kinase still bound, per cent of control [11]: 100%
kinase still bound, per cent of control [12]: 83%
kinase still bound, per cent of control [13]: 48%
kinase still bound, per cent of control [14]: 29%
kinase still bound, per cent of control [15]: 8.8%
kinase still bound, per cent of control [16]: 99%
kinase still bound, per cent of control [17]: 14%
kinase still bound, per cent of control [18]: 100%
kinase still bound, per cent of control [19]: 72%
kinase still bound, per cent of control [20]: 75%
kinase still bound, per cent of control [21]: 96%
kinase still bound, per cent of control [22]: 100%
kinase still bound, per cent of control [23]: 80%
kinase still bound, per cent of control [24]: 99%
kinase still bound, per cent of control [25]: 98%
kinase still bound, per cent of control [26]: 100%
kinase still bound, per cent of control [27]: 100%
kinase still bound, per cent of control [28]: 0.3%
kinase still bound, per cent of control [29]: 23%
kinase still bound, per cent of control [30]: 100%
kinase still bound, per cent of control [31]: 94%
kinase still bound, per cent of control [32]: 71%
kinase still bound, per cent of control [33]: 93%
kinase still bound, per cent of control [34]: 74%
kinase still bound, per cent of control [35]: 87%
kinase still bound, per cent of control [36]: 100%
kinase still bound, per cent of control [37]: 100%
